From patent publication US20120171126A1, “NOVEL [3,2-c] HETEROARYL STEROIDS AS GLUCOCORTICOID RECEPTOR AGONISTS COMPOSITIONS AND USES THEREOF” (priority 2009, published 2012)

Columns and labels:
[1] = system: human glucocorticoid response element coupled with a luciferase reporter gene; test: GRE-transactivation assay (HeLa-GRE luciferase, TA); assay type: cell-based; conditions: HeLa cells, 24 hours, luciferase, read-out: EMAX value, GRE-transactivation assay
Protocol: HeLa cells were stably transfected with a human glucocorticoid response element coupled with a luciferase reporter gene. Cells were plated in 96 well Packard View Plates (black sides/ clear bottom) at 20 K cells/0.2 ml complete medium. Plates were incubated overnight at 37°/5% CO2. Medium was aspirated and replaced with 150 μl medium containing 5% charcoal-treated FBS and cells incubated overnight again. Test compounds were prepared in 5% charcoal-treated FBS medium. Medium was aspirated from plates and replaced with 100 μl of test compounds or controls. Plates were returned to incubator for exactly 24 hours. To measure induced luciferase, 100 μl of Steady-Glo luciferase assay substrate (Promega) was added to each well. Plates were sealed and mixed on a plate shaker for 5 minutes. Plate bottom opaque seals were added and the plates were allowed to stand for 60 minutes. Luminescence was measured on a Top-Count instrument (Perkin-Elmer).

[2] = system: IL-8; test: Glucocorticoid transrepression assay, IL-8 inhibition (TR); assay type: cell-based; conditions: Homo sapiens, Table 1, NCl-H292 cells, TNFα 10 ng/ml; for Emax: read-out: IL-8 inhibition (TR) Emax % inhibition
Protocol: Human Lung epithelial cell line NCl-H292 cells were dissociated from stock flask using 0.05% trypsin/0.53 mM EDTA. Cells were suspended in complete medium and counted. Cells were plated in 96-well flat-bottom plates at 20K cells /well in 0.2 ml/well. Plates were incubated for 24-48 hours until cells were between 75-90% confluent. Medium was aspirated and replaced with medium containing various concentrations of steroids or antagonists. After 1 hour incubation at 37°, TNFα (10 ng/ml final concentration in 0.2 ml) was added and the cells incubated overnight. Control wells with and without TNF were included on each plate, as well as wells with TNF in addition to a maximum (10 μM) concentration of dexamethasone. The cell culture medium was sampled and IL-6 and IL-8 cytokine production was measured using the MSD Multi-Spot immunoassay.

CC12Cc3cnn(-c4ccc(F)cc4)c3C=C1CCC1C2[C@@H](O)CC2(C)C1CC[C@]2(O)C(=O)Cn1cc(-c2ccccc2)cn1 (stereo partly shown) [Compound 1]
Emax [1]: 69%

CC12Cc3cnn(C4CCOCC4)c3C=C1CCC1C2[C@@H](O)CC2(C)C1CC[C@]2(O)C(=O)CSc1ccccn1 (stereo partly shown) [Compound 73]
IC50 [2]: 0.06 to 20 nM | Emax [2]: > 80%

CC12Cc3cnn(C4CCOCC4)c3C=C1CCC1C2[C@@H](O)CC2(C)C1CC[C@]2(O)C(=O)CSc1nc2ccccc2[nH]1 (stereo partly shown) [Compound 75]
Emax [2]: < 60%

Cc1ccccc1-n1ncc2c1C=C1CCC3C([C@@H](O)CC4(C)C3CC[C@]4(O)C(=O)CSc3nc4ccccc4s3)C1(C)C2 (stereo partly shown) [Compound 76]
Emax [2]: < 60%

Cc1ccccc1-n1ncc2c1C=C1CCC3C([C@@H](O)CC4(C)C3CC[C@]4(O)C(=O)CSc3nc4ccccc4n3C)C1(C)C2 (stereo partly shown) [Compound 77]
Emax [2]: < 60%

Cc1ccccc1-n1ncc2c1C=C1CCC3C([C@@H](O)CC4(C)C3CC[C@]4(O)C(=O)CSc3nc4cccnc4s3)C1(C)C2 (stereo partly shown) [Compound 78]
Emax [2]: < 60%

Cc1ccccc1-n1ncc2c1C=C1CCC3C([C@@H](O)CC4(C)C3CC[C@]4(O)C(=O)CSc3nc4ncccc4o3)C1(C)C2 (stereo partly shown) [Compound 79]
Emax [2]: < 60%

Cc1ccccc1-n1ncc2c1C=C1CCC3C([C@@H](O)CC4(C)C3CC[C@]4(O)C(=O)CSc3ccccn3)C1(C)C2 (stereo partly shown) [Compound 80]
Emax [2]: < 60%

Cc1ccccc1-n1ncc2c1C=C1CCC3C([C@@H](O)CC4(C)C3CC[C@]4(O)C(=O)CSc3ccc4ccccc4n3)C1(C)C2 (stereo partly shown) [Compound 81]
Emax [2]: < 60%

Cc1ccccc1-n1ncc2c1C=C1CCC3C([C@@H](O)CC4(C)C3CC[C@]4(O)C(=O)CSc3nc4ccccc4[nH]3)C1(C)C2 (stereo partly shown) [Compound 82]
Emax [2]: < 60%

CC12Cc3cnn(-c4nc5ccccc5[nH]4)c3C=C1CCC1C2[C@@H](O)CC2(C)C1CC[C@]2(O)C(=O)CSc1nc2ccccc2s1 (stereo partly shown) [Compound 83]
Emax [2]: < 60%

Cn1c(SCC(=O)[C@@]2(O)CCC3C4CCC5=Cc6c(cnn6-c6nc7ccccc7[nH]6)CC5(C)C4[C@@H](O)CC32C)nc2ccccc21 (stereo partly shown) [Compound 84]
Emax [2]: < 60%

COc1ccc(-n2ncc3c2C=C2CCC4C([C@@H](O)CC5(C)C4CC[C@]5(O)C(=O)CSc4nc5ccccc5s4)C2(C)C3)cc1 (stereo partly shown) [Compound 85]
IC50 [2]: 66 to 400 nM | Emax [2]: 70 to 80%

COc1ccc(-n2ncc3c2C=C2CCC4C([C@@H](O)CC5(C)C4CC[C@]5(O)C(=O)CSc4nc5ccccc5n4C)C2(C)C3)cc1 (stereo partly shown) [Compound 86]
IC50 [2]: 66 to 400 nM | Emax [2]: 70 to 80%

COc1ccc(-n2ncc3c2C=C2CCC4C([C@@H](O)CC5(C)C4CC[C@]5(O)C(=O)CSc4nc5cccnc5s4)C2(C)C3)cc1 (stereo partly shown) [Compound 87]
IC50 [2]: 66 to 400 nM | Emax [2]: 60 to 70%

COc1ccc(-n2ncc3c2C=C2CCC4C([C@@H](O)CC5(C)C4CC[C@]5(O)C(=O)CSc4ccccn4)C2(C)C3)cc1 (stereo partly shown) [Compound 88]
IC50 [2]: 66 to 400 nM | Emax [2]: 60 to 70%

COc1ccc(-n2ncc3c2C=C2CCC4C([C@@H](O)CC5(C)C4CC[C@]5(O)C(=O)CSc4ccc5ccccc5n4)C2(C)C3)cc1 (stereo partly shown) [Compound 89]
Emax [2]: < 60%

CC(C)(C)c1ccc(-n2ncc3c2C=C2CCC4C([C@@H](O)CC5(C)C4CC[C@]5(O)C(=O)CSc4nc5ccccc5s4)C2(C)C3)cc1 (stereo partly shown) [Compound 90]
Emax [2]: < 60%

Cn1c(SCC(=O)[C@@]2(O)CCC3C4CCC5=Cc6c(cnn6-c6ccc(C(C)(C)C)cc6)CC5(C)C4[C@@H](O)CC32C)nc2ccccc21 (stereo partly shown) [Compound 91]
Emax [2]: < 60%

CC(C)(C)c1ccc(-n2ncc3c2C=C2CCC4C([C@@H](O)CC5(C)C4CC[C@]5(O)C(=O)CSc4nc5cccnc5s4)C2(C)C3)cc1 (stereo partly shown) [Compound 92]
Emax [2]: < 60%

CC(C)(C)c1ccc(-n2ncc3c2C=C2CCC4C([C@@H](O)CC5(C)C4CC[C@]5(O)C(=O)CSc4ccccn4)C2(C)C3)cc1 (stereo partly shown) [Compound 93]
Emax [2]: < 60%

CC12Cc3cnn(-c4ccc(F)cc4)c3C=C1CCC1C2[C@@H](O)CC2(C)C1CC[C@]2(O)C(=O)CSc1nc2ccc(O)cc2[nH]1 (stereo partly shown) [Compound 94]
IC50 [2]: 0.06 to 20 nM | Emax [2]: > 80%

CC12Cc3cnn(-c4ccc(F)cc4)c3C=C1CCC1C2[C@@H](O)CC2(C)C1CC[C@]2(O)C(=O)CSc1nc(-c2ccccc2)c(-c2ccccc2)o1 (stereo partly shown) [Compound 96]
IC50 [2]: 66 to 400 nM | Emax [2]: > 80%

Cc1ccnc(SCC(=O)[C@@]2(O)CCC3C4CCC5=Cc6c(cnn6-c6ccc(F)cc6)CC5(C)C4[C@@H](O)CC32C)n1 (stereo partly shown) [Compound 97]
IC50 [2]: 0.06 to 20 nM | Emax [2]: > 80%

CC12Cc3cnn(-c4ccc(F)cc4)c3C=C1CCC1C2[C@@H](O)CC2(C)C1CC[C@]2(O)C(=O)CSc1ncnc2ccccc12 (stereo partly shown) [Compound 98]
IC50 [2]: 0.06 to 20 nM | Emax [2]: > 80%

CC12Cc3cnn(-c4ccc(F)cc4)c3C=C1CCC1C2[C@@H](O)CC2(C)C1CC[C@]2(OC(=O)c1ccco1)C(=O)CSc1nc2ncccc2o1 (stereo partly shown) [Compound 99]
IC50 [2]: 0.06 to 20 nM | Emax [2]: > 80%

Cn1nnnc1SCC(=O)[C@@]1(O)CCC2C3CCC4=Cc5c(cnn5-c5ccc(F)cc5)CC4(C)C3[C@@H](O)CC21C (stereo partly shown) [Compound 100]
IC50 [2]: 0.06 to 20 nM | Emax [2]: > 80%

Cc1cc(C)nc(SCC(=O)[C@@]2(O)CCC3C4CCC5=Cc6c(cnn6-c6ccc(F)cc6)CC5(C)C4[C@@H](O)CC32C)n1 (stereo partly shown) [Compound 101]
IC50 [2]: 0.06 to 20 nM | Emax [2]: > 80%

CC12Cc3cnn(-c4ccc(F)cc4)c3C=C1CCC1C2[C@@H](O)CC2(C)C1CC[C@]2(O)C(=O)CSc1nc2ccc(N)cc2s1 (stereo partly shown) [Compound 102]
IC50 [2]: 0.06 to 20 nM | Emax [2]: > 80%

COc1ccc2nc(SCC(=O)[C@@]3(O)CCC4C5CCC6=Cc7c(cnn7-c7ccc(F)cc7)CC6(C)C5[C@@H](O)CC43C)sc2c1 (stereo partly shown) [Compound 103]
IC50 [2]: 0.06 to 20 nM | Emax [2]: > 80%

CC12Cc3cnn(-c4ccc(F)cc4)c3C=C1CCC1C2[C@@H](O)CC2(C)C1CC[C@]2(O)C(=O)COc1nc2ccccc2o1 (stereo partly shown) [Compound 104]
IC50 [2]: 0.06 to 20 nM | Emax [2]: > 80%

CC12Cc3cnn(-c4ccc(F)cc4)c3C=C1CCC1C2[C@@H](O)CC2(C)C1CC[C@]2(O)C(=O)COc1nc2ccccc2[nH]1 (stereo partly shown) [Compound 111]
IC50 [2]: 0.06 to 20 nM | Emax [2]: > 80%

Cn1c(OCC(=O)[C@@]2(O)CCC3C4CCC5=Cc6c(cnn6-c6ccc(F)cc6)CC5(C)C4[C@@H](O)CC32C)nc2ccccc21 (stereo partly shown) [Compound 112]
IC50 [2]: 0.06 to 20 nM | Emax [2]: > 80%

CC12Cc3cnn(-c4ccc(F)cc4)c3C=C1CCC1C2[C@@H](O)CC2(C)C1CC[C@]2(O)C(=O)COc1nccc2ccccc12 (stereo partly shown) [Compound 114]
IC50 [2]: 0.06 to 20 nM | Emax [2]: > 80%

CC12Cc3cnn(-c4ccccc4)c3C=C1CCC1C2[C@@H](O)CC2(C)C1CC[C@]2(O)C(=O)COc1ccc2ccccc2c1 (stereo partly shown) [Compound 117]
IC50 [2]: 0.06 to 20 nM | Emax [2]: > 80%

CC12Cc3cnn(-c4ccccc4)c3C=C1CCC1C2[C@@H](O)CC2(C)C1CC[C@]2(O)C(=O)COc1nc2ccccc2[nH]1 (stereo partly shown) [Compound 118]
IC50 [2]: 0.06 to 20 nM | Emax [2]: > 80%

Cn1c(OCC(=O)[C@@]2(O)CCC3C4CCC5=Cc6c(cnn6-c6ccccc6)CC5(C)C4[C@@H](O)CC32C)nc2ccccc21 (stereo partly shown) [Compound 119]
IC50 [2]: 0.06 to 20 nM | Emax [2]: > 80%

CC12Cc3cnn(-c4ccccc4)c3C=C1CCC1C2[C@@H](O)CC2(C)C1CC[C@]2(O)C(=O)COc1nc2ccccc2s1 (stereo partly shown) [Compound 120]
IC50 [2]: 0.06 to 20 nM | Emax [2]: > 80%

CC12Cc3cn(-c4ccccc4)nc3C=C1CCC1C2[C@@H](O)CC2(C)C1CC[C@]2(O)C(=O)COc1nc2ccccc2s1 (stereo partly shown) [Compound 121]
Emax [2]: < 60%

CC12Cc3cnn(-c4ccccc4)c3C=C1CCC1C2[C@@H](O)CC2(C)C1CC[C@]2(O)C(=O)COc1ccccn1 (stereo partly shown) [Compound 122]
IC50 [2]: 0.06 to 20 nM | Emax [2]: > 80%

Cn1c(SCC(=O)[C@@]2(O)CCC3C4CCC5=Cc6c(cnn6-c6ccc(F)cc6)CC5(C)C4[C@@H](O)CC32C)nc2cc(S(N)(=O)=O)ccc21 (stereo partly shown) [Compound 123]
IC50 [2]: 0.06 to 20 nM | Emax [2]: > 80%

CC12Cc3cnn(C4CCCCC4)c3C=C1CCC1C2[C@@H](O)CC2(C)C1CC[C@]2(O)C(=O)CSc1ncccn1 (stereo partly shown) [Compound 126]
IC50 [2]: 0.06 to 20 nM | Emax [2]: > 80%

Cc1nc(SCC(=O)[C@@]2(O)CCC3C4CCC5=Cc6c(cnn6C6CCCCC6)CC5(C)C4[C@@H](O)CC32C)sc1C (stereo partly shown) [Compound 130]
IC50 [2]: 0.06 to 20 nM | Emax [2]: > 80%

CC12Cc3cnn(C4CCCCC4)c3C=C1CCC1C2[C@@H](O)CC2(C)C1CC[C@]2(O)C(=O)CSc1nc(-c2ccccc2)cs1 (stereo partly shown) [Compound 133]
IC50 [2]: 21 to 65 nM | Emax [2]: > 80%

C[C@@H]1C[C@H]2[C@@H]3CCC4=CC(=O)C=C[C@]4(C)[C@@]3(F)[C@@H](O)C[C@]2(C)[C@@]1(O)C(=O)CO [dexamethasone, reference compound]
Emax [1]: 100%

CCC(=O)O[C@]1(C(=O)SCF)[C@H](C)C[C@H]2[C@@H]3C[C@H](F)C4=CC(=O)C=C[C@]4(C)[C@@]3(F)[C@@H](O)C[C@@]21C [fluticasone propionate, reference compound]
Emax [1]: 99%
